In EP4603105A1, “PHARMACEUTICAL COMPOSITION CONTAINING CYCLIC COMPOUND HAVING SELECTIVE KRAS INHIBITORY EFFECT AGAINST HRAS AND NRAS” (CHUGAI SEIYAKU KABUSHIKI KAISHA, priority 2022, dated 2024):
Where a SMILES comes first, the peptide text is derived from it. Bridges are numbered along the chain shown (N, C = ends). [ ]: non-standard residue; d: D form. The star is where a group is joined. hPhe(3,5-F2-4-CF3) = N[C@@H](CCc1cc(F)c(C(F)(F)F)c(F)c1)C(=O)O; NPrPhe(4-CF3) = CCCN[C@@H](Cc1ccc(C(F)(F)F)cc1)C(=O)O; NMeGly(cPent) = CN[C@H](C(=O)O)C1CCCC1; Nva(3-Et) = CCC(CC)[C@H](N)C(=O)O; αMeF = C[C@](N)(Cc1ccccc1)C(=O)O; NMeD = CN[C@@H](CC(=O)O)C(=O)O; NMeL = CN[C@@H](CC(C)C)C(=O)O; αMeS = C[C@](N)(CO)C(=O)O; Morpholide = C1CN(*)CCO1; Ac5c = NC1(C(=O)O)CCCC1; Aze = O=C(O)[C@@H]1CCN1; Sar = CNCC(=O)O; Allyl = C=CC*

Key:
[1] = molecular target: GDP-bound NRAS wild-type protein (Homo sapiens, UniProt P01111); experiment: Binding to NRAS by surface plasmon resonance (SPR), KD and KD ratio to KRAS; settings: ratio of KD for GDP-bound NRAS wild-type protein to KD for KRAS
How it was run: (§1)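 Recombinant RAS proteins bearing a biotinylated Avi tag and loaded with GDP served as the captured ligand, recaptured fresh every cycle. Binding responses were referenced to an uncoated surface and a buffer-only blank cycle. Dissociation constants were obtained by 1:1 model fitting at 30°C.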

[2] = molecular target: GDP-bound KRAS wild-type protein (Homo sapiens, UniProt P01116); experiment: Binding to KRAS by surface plasmon resonance (SPR), dissociation constant KD; settings: Single Cycle Kinetics
How it was run: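 SPR, 30°C: Avi-biotin RAS·GDP captured via Biotin CAPture (~100–300 RU); running buffer HBS pH 7.4, 1 mM DTT, 10 mM MgCl2, 0.01% Tween 20, 10 µM GDP, 4% DMSO. Single-cycle kinetics, 100 µL/min, 75 s injections; 1:1 model → KD.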

[3] = molecular target: HRAS wild-type protein (Homo sapiens, UniProt P01112); experiment: Binding to HRAS by surface plasmon resonance (SPR), KD and KD ratio to KRAS; settings: ratio of KD for HRAS wild-type protein to KD for KRAS
How it was run: as §1

[4] = system: human lung cancer strain NCI-H441; type: cell-based
How it was run: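 Signal came from […] measured per well once the reagent was added. Beforehand, cells were cultured at 37°C and 5% carbon dioxide on a compound series serially diluted in dimethyl sulfoxide.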

Sequence of GDP-bound NRAS wild-type protein (P01111 whole entry): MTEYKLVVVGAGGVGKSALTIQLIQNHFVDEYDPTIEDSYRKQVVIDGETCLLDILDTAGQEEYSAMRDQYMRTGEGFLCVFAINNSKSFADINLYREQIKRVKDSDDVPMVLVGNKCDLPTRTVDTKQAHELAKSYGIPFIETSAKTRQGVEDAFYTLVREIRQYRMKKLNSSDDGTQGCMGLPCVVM
Sequence of HRAS wild-type protein (P01112 whole entry): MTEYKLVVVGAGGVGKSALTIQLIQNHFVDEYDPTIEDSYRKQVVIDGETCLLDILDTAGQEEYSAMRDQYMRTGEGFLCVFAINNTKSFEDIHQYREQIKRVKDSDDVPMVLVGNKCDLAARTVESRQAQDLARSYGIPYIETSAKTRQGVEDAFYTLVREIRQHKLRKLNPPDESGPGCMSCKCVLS
Sequence of GDP-bound KRAS wild-type protein (P01116 1-188 isoform P01116-2): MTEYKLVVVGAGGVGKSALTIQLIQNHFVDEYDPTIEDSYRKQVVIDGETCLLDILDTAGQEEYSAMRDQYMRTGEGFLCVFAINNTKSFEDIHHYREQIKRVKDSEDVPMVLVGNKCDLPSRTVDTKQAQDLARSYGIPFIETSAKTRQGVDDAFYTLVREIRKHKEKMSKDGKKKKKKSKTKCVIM

Structure (SMILES) | NRAS /KRAS [1] | Kd [2] | HRAS /KRAS [3] | IC50 [4]
CCCN1C(=O)CN(C)C(=O)[C@@H]2CCN2C(=O)[C@H]([C@@H](C)CC)NC(=O)[C@H](CC(C)C)N(C)C(=O)C[C@@H](C(=O)N2CCOCC2)N(C)C(=O)[C@H](C2CCCC2)N(C)C(=O)[C@](C)(Cc2ccccc2)NC(=O)[C@@H]2CCCN2C(=O)[C@H](CCc2cc(F)c(C(F)(F)F)c(F)c2)NC(=O)CN(C)C(=O)[C@@H]1Cc1ccc(C(F)(F)F)cc1 [PP0778] ([NMeL]I[Aze][Sar][NPrPhe(4-CF3)][Sar][hPhe(3,5-F2-4-CF3)]P[αMeF][NMeGly(cPent)][NMeD]-Morpholide; lactam N-11) | B (a compound having 3 or more and less than 10 is denoted as B) | 10 nM | B (a compound having 3 or more and less than 10 is denoted as B) | 546 nM
CCCN1C(=O)CN(C)C(=O)[C@@H]2CCN2C(=O)[C@H]([C@@H](C)CC)NC(=O)[C@H](CC(C)C)N(C)C(=O)C[C@@H](C(=O)N2CCOCC2)N(C)C(=O)[C@H](C2CCCC2)N(C)C(=O)[C@](C)(COC)NC(=O)[C@@H]2CCCN2C(=O)[C@H](CCc2cc(F)c(C(F)(F)F)c(F)c2)NC(=O)CN(C)C(=O)[C@@H]1Cc1ccc(C(F)(F)F)cc1 [PP0779] ([NMeL]I[Aze][Sar][NPrPhe(4-CF3)][Sar][hPhe(3,5-F2-4-CF3)]P[αMeS](Me)[NMeGly(cPent)][NMeD]-Morpholide; lactam N-11) | B (a compound having 3 or more and less than 10 is denoted as B) | 5.1 nM | B (a compound having 3 or more and less than 10 is denoted as B) | 364 nM
C=CCOC[C@]1(C)NC(=O)[C@@H]2CCCN2C(=O)[C@H](CCc2cc(F)c(C(F)(F)F)c(F)c2)NC(=O)CN(C)C(=O)[C@H](Cc2ccc(C(F)(F)F)cc2)N(CCC)C(=O)CN(C)C(=O)[C@@H]2CCN2C(=O)[C@H]([C@@H](C)CC)NC(=O)[C@H](CC(C)C)N(C)C(=O)C[C@@H](C(=O)N2CCOCC2)N(C)C(=O)[C@H](C2CCCC2)N(C)C1=O [PP0780] ([NMeL]I[Aze][Sar][NPrPhe(4-CF3)][Sar][hPhe(3,5-F2-4-CF3)]P[αMeS](Allyl)[NMeGly(cPent)][NMeD]-Morpholide; lactam N-11) | B (a compound having 3 or more and less than 10 is denoted as B) | 7.8 nM | B (a compound having 3 or more and less than 10 is denoted as B) | 527 nM
CCCN1C(=O)CN(C)C(=O)[C@@H]2CCN2C(=O)[C@H](C(CC)CC)NC(=O)[C@H](CC(C)C)N(C)C(=O)C[C@@H](C(=O)N2CCOCC2)N(C)C(=O)[C@H](C2CCCC2)N(C)C(=O)C2(CCCC2)NC(=O)[C@@H]2CCCN2C(=O)[C@H](CCc2cc(F)c(C(F)(F)F)c(F)c2)NC(=O)CN(C)C(=O)[C@@H]1Cc1ccc(C(F)(F)F)cc1 [PP0785] ([NMeL][Nva(3-Et)][Aze][Sar][NPrPhe(4-CF3)][Sar][hPhe(3,5-F2-4-CF3)]P[Ac5c][NMeGly(cPent)][NMeD]-Morpholide; lactam N-11) | B (a compound having 3 or more and less than 10 is denoted as B) | 3 nM | B (a compound having 3 or more and less than 10 is denoted as B) | 324 nM
CCO[C@@H]1C[C@H]2C(=O)NC3(CCC3)C(=O)N(C)[C@@H](C3CCCC3)C(=O)N(C)[C@H](C(=O)N3CCOCC3)CC(=O)N(C)[C@@H](CC(C)C)C(=O)N[C@@H]([C@H](C)CC)C(=O)N(C)CC(=O)N(C)[C@H]3CCCCN(C3=O)[C@@H](Cc3ccc(C(F)(F)F)cc3)C(=O)N(C)CC(=O)N[C@@H](CCc3cc(F)c(C(F)(F)F)c(F)c3)C(=O)N2C1 [PP0806] | B (a compound having 3 or more and less than 10 is denoted as B) | 0.19 nM | B (a compound having 3 or more and less than 10 is denoted as B) | 16.9 nM
CCO[C@@H]1C[C@H]2C(=O)NC3(CCC3)C(=O)N(C)[C@@H](C3CCCC3)C(=O)N(C)[C@H](C(=O)N3CCOCC3)CC(=O)N(C)[C@@H](CC(C)C)C(=O)N[C@@H]([C@H](C)CC)C(=O)N(C)CC(=O)N(C)[C@H]3CCCCCN(C3=O)[C@@H](Cc3ccc(C(F)(F)F)cc3)C(=O)N(C)CC(=O)N[C@@H](CCc3cc(F)c(C(F)(F)F)c(F)c3)C(=O)N2C1 [PP0815] | B (a compound having 3 or more and less than 10 is denoted as B) | 3.9 nM | B (a compound having 3 or more and less than 10 is denoted as B) | 345 nM
CCO[C@@H]1C[C@H]2C(=O)NC3(CCC3)C(=O)N(C)[C@@H](C3CCCC3)C(=O)N(C)[C@H](C(=O)N3CCOCC3)CC(=O)N(C)[C@@H](CC(C)C)C(=O)N[C@@H](C3CC(F)(F)C3)C(=O)N(C)CC(=O)N(C)[C@H]3CCCCCN(C3=O)[C@@H](Cc3ccc(C(F)(F)F)cc3)C(=O)N(C)CC(=O)N[C@@H](CCc3cc(F)c(C(F)(F)F)c(F)c3)C(=O)N2C1 [PP0816] | A (a compound having 10 or more and less than 20 is denoted as A) | 0.5 nM | B (a compound having 3 or more and less than 10 is denoted as B) | 92.5 nM
CC[C@H](C)[C@@H]1NC(=O)[C@H](CC(C)C)N(C)C(=O)C[C@@H](C(=O)N2CCOCC2)N(C)C(=O)[C@H](C2CCCC2)N(C)C(=O)C2(CCC2)NC(=O)[C@]2(C)CCCN2C(=O)[C@H](CCc2cc(F)c(C(F)(F)F)c(F)c2)NC(=O)CN(C)C(=O)[C@H](Cc2ccc(C(F)(F)F)cc2)N2CCCCC[C@@H](C2=O)N(C)C(=O)CN(C)C1=O [PP0817] | A (a compound having 10 or more and less than 20 is denoted as A) | 0.36 nM | B (a compound having 3 or more and less than 10 is denoted as B) | 112 nM
CC[C@H](C)[C@@H]1NC(=O)[C@H](CC(C)C)N(C)C(=O)C[C@@H](C(=O)N2CCOCC2)N(C)C(=O)[C@H](C2CCCC2)N(C)C(=O)C2(CCC2)NC(=O)[C@@H]2[C@H]3C[C@H]3CN2C(=O)[C@H](CCc2cc(F)c(C(F)(F)F)c(F)c2)NC(=O)CN(C)C(=O)[C@H](Cc2ccc(C(F)(F)F)cc2)N2CCCCC[C@@H](C2=O)N(C)C(=O)CN(C)C1=O [PP0819] | A (a compound having 10 or more and less than 20 is denoted as A) | 0.56 nM | B (a compound having 3 or more and less than 10 is denoted as B) | 75.7 nM
CCO[C@@H]1C[C@H]2C(=O)NC3(CCC3)C(=O)N(C)[C@@H](C(CC)CC)C(=O)N(C)[C@H](C(=O)N3CCOCC3)CC(=O)N(C)[C@@H](CC(C)C)C(=O)N[C@@H]([C@@H](C)CC)C(=O)N(C)CC(=O)N(C)[C@H]3CCCCCN(C3=O)[C@@H](Cc3ccc(C(F)(F)F)cc3)C(=O)N(C)CC(=O)N[C@@H](CCc3cc(F)c(C(F)(F)F)c(F)c3)C(=O)N2C1 [PP0820] | A (a compound having 10 or more and less than 20 is denoted as A) | 1.2 nM | B (a compound having 3 or more and less than 10 is denoted as B) | 60.1 nM
CCO[C@@H]1C[C@H]2C(=O)NC3(CCC3)C(=O)N(C)[C@@H]([C@H](C)CC)C(=O)N(C)[C@H](C(=O)N3CCOCC3)CC(=O)N(C)[C@@H](CC(C)C)C(=O)N[C@@H]([C@@H](C)CC)C(=O)N(C)CC(=O)N(C)[C@H]3CCCCCN(C3=O)[C@@H](Cc3ccc(C(F)(F)F)cc3)C(=O)N(C)CC(=O)N[C@@H](CCc3cc(F)c(C(F)(F)F)c(F)c3)C(=O)N2C1 [PP0821] | A (a compound having 10 or more and less than 20 is denoted as A) | 2 nM | B (a compound having 3 or more and less than 10 is denoted as B) | 250 nM
CCO[C@@H]1C[C@H]2C(=O)NC3(CCC3)C(=O)N(C)[C@@H](C3CCCC3)C(=O)N(C)[C@H](C(=O)N3CCOCC3)CC(=O)N(C)[C@@H](CC(C)C)C(=O)N[C@@H]([C@@H](C)CC)C(=O)N(C)CC(=O)N(C)[C@H]3CC=C(C)CN(C3=O)[C@@H](Cc3ccc(C(F)(F)F)cc3)C(=O)N(C)CC(=O)N[C@@H](CCc3cc(F)c(C(F)(F)F)c(F)c3)C(=O)N2C1 [PP0826] | C (A compound having a KD ratio of 0.1 or more and less than 3 is denoted as C) | 0.13 nM | B (a compound having 3 or more and less than 10 is denoted as B) | 11.5 nM
CCO[C@@H]1C[C@H]2C(=O)NC3(CCC3)C(=O)N(C)[C@@H](C3CCCC3)C(=O)N(C)[C@H](C(=O)N3CCOCC3)CC(=O)N(C)[C@@H](CC(C)C)C(=O)N[C@@H]([C@@H](C)CC)C(=O)N(C)CC(=O)N(C)[C@H]3C[C@H]4C[C@H]4CN(C3=O)[C@@H](Cc3ccc(C(F)(F)F)cc3)C(=O)N(C)CC(=O)N[C@@H](CCc3cc(F)c(C(F)(F)F)c(F)c3)C(=O)N2C1 [PP0829] | B (a compound having 3 or more and less than 10 is denoted as B) | 0.081 nM | C (A compound having a KD ratio of 0.1 or more and less than 3 is denoted as C) | 4.4 nM
